# Earlier results, collected in patent publication US20230363334A1, “METHOD FOR INCREASING CONTENT AND GENE EXPRESSION OF AROMATIC SUBSTANCE IN FRUITS AND VEGETABLES BY USING HYDROGEN-RICH WATER” (NANJING AGRICULTURAL UNIVERSITY, priority 2020, published 2023).
# Settings: one atmosphere and 20° C.
smiles,measurement,value
[HH] [hydrogen],Maximum concentration of hydrogen dissolved in water (saturation concentration),1.6 ppm
same,Solubility of hydrogen (volumes of hydrogen per volume of water),1.83%
